According to US6469056B1, “Pharmaceutically active compounds, their preparation and use as ECE-inhibitors” (Abbott Laboratories, priority 1997, dated 2002):

Tests used:
Assay type in all cases: biochemical
[1] = target: ACE (angiotensin converting enzyme) (Homo sapiens, UniProt P12821); assay: ACE inhibition
[2] = target: T1, recombinant human ECE from CHO cells (Homo sapiens, UniProt P42892); assay: ECE inhibitor test, IC50 determination (Big ET1 cleavage, HPLC); conditions: Big ET1 substrate, 1 hour at 37° C., pH 7.2
T1 construct: made in house; host or cells: CHO cells
T1 sequence (P42892 1-770): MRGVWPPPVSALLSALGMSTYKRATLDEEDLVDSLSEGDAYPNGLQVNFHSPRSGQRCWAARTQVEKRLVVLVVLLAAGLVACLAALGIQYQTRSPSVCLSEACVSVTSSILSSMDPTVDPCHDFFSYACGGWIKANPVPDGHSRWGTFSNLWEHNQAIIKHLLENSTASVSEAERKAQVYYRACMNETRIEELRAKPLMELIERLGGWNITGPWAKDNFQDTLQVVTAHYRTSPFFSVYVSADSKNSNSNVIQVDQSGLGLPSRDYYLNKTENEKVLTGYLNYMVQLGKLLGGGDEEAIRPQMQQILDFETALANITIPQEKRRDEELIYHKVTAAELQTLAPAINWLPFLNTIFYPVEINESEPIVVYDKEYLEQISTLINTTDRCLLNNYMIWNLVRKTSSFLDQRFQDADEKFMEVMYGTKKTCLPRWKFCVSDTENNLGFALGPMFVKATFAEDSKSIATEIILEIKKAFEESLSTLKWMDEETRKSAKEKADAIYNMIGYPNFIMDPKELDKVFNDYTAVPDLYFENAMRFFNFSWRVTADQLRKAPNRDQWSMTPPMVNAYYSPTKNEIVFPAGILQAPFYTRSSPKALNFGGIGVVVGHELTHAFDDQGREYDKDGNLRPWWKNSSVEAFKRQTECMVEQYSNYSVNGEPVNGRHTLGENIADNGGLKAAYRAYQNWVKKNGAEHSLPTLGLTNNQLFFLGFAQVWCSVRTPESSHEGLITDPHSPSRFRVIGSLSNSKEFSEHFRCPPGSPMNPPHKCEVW
Experimental: ECE Inhibitor Tests, IC50 Determinations
Inhibitors of endothelin converting enzyme (ECE) were tested using recombinant human ECE from CHO cells as described in Schmidt et al. (FEBS Letters 356, 1994: 238-243).
The enzyme preparations employed were, after membrane isolation and solubilization, further purified by Mono-Q chromatography and WGA lectin chromatography. The preparations obtained in this way contained no interfering foreign protease activities and had specific activities in the range 1-20 mU/mg. 5 μl of this enzyme solution were preincubated with 495 μl of test buffer (100 mM Pi, 500 mM NaCl, 0,1 mg/ml BSA pH 7.2) and with in each case 5 μl of appropriately concentrated solutions (10^−3 M, 10^−4 M, 10^−5 M etc.) of the inhibitors in the test buffer for 10 minutes. 50 μl aliquots were mixed with 5 μl of 2×10^−3 M Big ET1 solution (=Big Endothelin1) in 0.02% acetic acid. The mixtures were stopped after 1 hour at 37° C. by adding 150 μl of 0.5% TFA (=trifluoroacetic acid) in water, and centrifuged at 10000×g for 5 minutes, and the enzyme reaction was determined by measuring the endothelin formed by means of reversed phase HPLC as described in Takada et al. (Biochem. Biophys. Res. Comm. 176, 1991, 860), K. Ohnaka et al. (Biochem. Biophys. Res. Commun. 168, 1990, 1128). An inhibition plot was produced from the values of the inhibition at the various inhibitor concentrations, and the half-maximum inhibition (IC50) was read off as a measure of the strength of the inhibitory effect.

[3] = target: NEP 24.11 (neutral endopeptidase 24.11) (Homo sapiens, UniProt P08473); assay: NEP 24.11 inhibition
Chain of NEP 24.11 (neutral endopeptidase 24.11) (P08473 whole entry, species assumed): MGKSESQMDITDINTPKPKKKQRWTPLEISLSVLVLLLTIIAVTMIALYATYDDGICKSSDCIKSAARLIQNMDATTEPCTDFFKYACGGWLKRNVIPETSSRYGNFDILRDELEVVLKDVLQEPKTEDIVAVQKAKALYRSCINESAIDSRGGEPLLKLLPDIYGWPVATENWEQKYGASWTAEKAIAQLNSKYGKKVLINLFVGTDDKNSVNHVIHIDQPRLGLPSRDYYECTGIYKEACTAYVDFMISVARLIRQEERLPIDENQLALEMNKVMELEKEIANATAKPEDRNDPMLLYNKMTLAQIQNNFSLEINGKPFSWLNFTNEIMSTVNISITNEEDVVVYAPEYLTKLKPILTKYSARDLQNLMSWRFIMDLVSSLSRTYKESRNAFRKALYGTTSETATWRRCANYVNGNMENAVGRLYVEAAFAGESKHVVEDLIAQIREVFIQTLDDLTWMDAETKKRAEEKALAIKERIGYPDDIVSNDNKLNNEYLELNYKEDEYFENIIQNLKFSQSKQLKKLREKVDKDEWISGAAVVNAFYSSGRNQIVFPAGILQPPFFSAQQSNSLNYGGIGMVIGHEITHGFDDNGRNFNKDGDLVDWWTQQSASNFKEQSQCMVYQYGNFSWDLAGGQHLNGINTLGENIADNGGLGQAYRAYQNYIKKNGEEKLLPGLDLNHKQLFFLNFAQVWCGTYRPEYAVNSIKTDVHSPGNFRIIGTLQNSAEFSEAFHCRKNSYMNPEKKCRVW

Chain of ACE (angiotensin converting enzyme) (P12821 30-1306, species assumed): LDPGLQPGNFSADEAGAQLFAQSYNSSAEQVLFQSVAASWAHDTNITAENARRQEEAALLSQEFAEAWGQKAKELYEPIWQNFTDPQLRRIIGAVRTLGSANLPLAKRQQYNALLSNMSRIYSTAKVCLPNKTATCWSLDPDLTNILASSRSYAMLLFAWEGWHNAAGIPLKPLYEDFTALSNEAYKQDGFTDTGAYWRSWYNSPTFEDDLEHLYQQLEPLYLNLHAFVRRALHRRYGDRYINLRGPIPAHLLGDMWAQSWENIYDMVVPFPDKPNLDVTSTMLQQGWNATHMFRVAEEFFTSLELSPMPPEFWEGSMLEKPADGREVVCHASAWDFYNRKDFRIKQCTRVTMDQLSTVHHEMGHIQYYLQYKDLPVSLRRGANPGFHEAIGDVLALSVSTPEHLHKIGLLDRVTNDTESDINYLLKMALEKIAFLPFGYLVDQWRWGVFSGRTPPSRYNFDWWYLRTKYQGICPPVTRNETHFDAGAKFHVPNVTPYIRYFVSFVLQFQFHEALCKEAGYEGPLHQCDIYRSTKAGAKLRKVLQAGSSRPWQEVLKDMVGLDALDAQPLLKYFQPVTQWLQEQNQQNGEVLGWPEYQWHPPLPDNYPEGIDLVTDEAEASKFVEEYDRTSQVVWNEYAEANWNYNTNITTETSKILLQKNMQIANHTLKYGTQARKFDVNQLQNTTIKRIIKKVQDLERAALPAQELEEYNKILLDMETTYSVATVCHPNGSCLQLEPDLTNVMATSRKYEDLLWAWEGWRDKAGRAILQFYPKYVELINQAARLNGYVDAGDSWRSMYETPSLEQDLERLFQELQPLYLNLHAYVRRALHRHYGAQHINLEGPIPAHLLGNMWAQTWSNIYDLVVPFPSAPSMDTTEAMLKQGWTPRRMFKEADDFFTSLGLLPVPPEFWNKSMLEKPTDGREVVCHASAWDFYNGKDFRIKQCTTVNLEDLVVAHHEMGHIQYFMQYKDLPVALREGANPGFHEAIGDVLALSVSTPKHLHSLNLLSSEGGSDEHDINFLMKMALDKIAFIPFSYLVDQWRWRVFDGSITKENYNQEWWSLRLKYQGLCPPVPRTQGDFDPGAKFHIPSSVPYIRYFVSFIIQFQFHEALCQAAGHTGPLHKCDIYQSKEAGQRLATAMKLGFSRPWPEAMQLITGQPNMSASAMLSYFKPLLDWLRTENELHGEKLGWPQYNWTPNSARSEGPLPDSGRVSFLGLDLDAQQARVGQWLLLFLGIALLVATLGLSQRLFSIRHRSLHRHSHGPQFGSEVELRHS

IC50 [1]	IC50 [2]	IC50 [3]	SMILES
> 100 µM	2 µM	> 100 µM	O=C(N[C@@H](Cc1ccccc1)CN(C(=O)c1ccc(Cl)s1)[C@@H](Cc1ccccc1)C(=O)O)OCC1c2ccccc2-c2ccccc21 [Compound 1a]
> 100 µM	3 µM	> 100 µM	CC(C)(C)SSC[C@@H](CN(C(=O)c1ccc(Cl)s1)[C@@H](Cc1ccccc1)C(=O)O)NC(=O)OCC1c2ccccc2-c2ccccc21 [Compound 1b]
> 100 µM	4 µM	> 100 µM	O=C(N[C@@H](Cc1ccccc1)CN(C(=O)c1ccc2ccccc2c1)[C@@H](Cc1ccccc1)C(=O)O)OCC1c2ccccc2-c2ccccc21 [Compound 1e]
